Experimental data published in US6566047B1, “Method for identifying neurite-growth promoting agents” (The Regents of the University of Colorado, priority 1998, dated 2003).
Read-outs that look alike come from different tables or passages of the source.

How the values were obtained:
[1] = test system: MAT-Lu cells; test: Boyden chamber motility assay, MAT-Lu cells; type: cell-based, rat; settings: for Mat-Lu cells crossing filter in % of control +/− SEM: 4 hr, thrombin 200 nM, CDC 126 nM
Description: Boyden Chamber Motility Assays. Disposable transwells (Coming Costar, Cambridge, Mass.) of 6.5 mm diameter and 8 μm pore size were coated with 5 μg/ml laminin on both sides. The membranes were washed twice with Hank's balanced salt solution (HBSS) and then pre-incubated with growth medium containing 10% fetal bovine serum. Trypsinized cells (5×10^4) were plated into the upper well. After 1 hour the upper chamber was washed twice with HBSS, filled with serum-free medium and moved to a new lower chamber, also filled with serum-free medium, with or without thrombin and/or 0.75 nM insulin-like growth factor-1 (IGF-1). After incubation for 4 hrs, cells on the membrane were fixed and stained with a Diff-Quick kit (Baxter Scientific Products). Cells on the upper side were scraped off, the membranes were removed, mounted onto microscope slides and analyzed. Each filter was scanned twice at right angles under the light microscope with a 16×phase contrast objective lens. A continuous series of 20 frames for each filter was digitized using a high-resolution CCD camera (Kodak) and stored in a Power Macintosh computer. The two most peripheral pairs of frames from each scan were deleted so that 12 frames were analyzed for each filter. Cells that had crossed the membrane were counted and tabulated. The sum of the cells counted in the twelve frames was an individual data point.

[2] = test system: cPLA2; test: PLA2 activity (14C-AA release) in MAT-Lu cells; type: biochemical, rat; settings: thrombin 200 nM
Description: MAT-Lu cells were plated at a density of 0.5×10^6 cells per flask (T-75) and grown as detailed above to approximately 25% confluency. On the day before the experiments, the serum level in the medium was dropped to 1%. Cells were fed with fresh 1% serum-medium 4 hrs prior to harvest. For harvesting, cells were rinsed with Ca^++,Mg^++-free HBSS, covered with 2 ml cold Ca^++-free modified Krebs buffer (220 mM sucrose, 50 mM NaCl, 5 mM KCl, 22 mM HEPES, 10 mM glucose. 1.2 mM NaH2PO4 and 1.2 mM MgCl2, pH 7.3), and placed on ice. Cells were scraped off, pelleted for 5 min at 200 rpm and re-suspended in a minimal volume of Krebs buffer. Aliquots were used to determine protein concentration (Biorad Assay) and phopholipase activity. To measure PLA2 activity 10-12 μg of cell protein was incubated with or without thrombin for 10 min on ice, ^14C-AA-labeled phospholipid substrate (7 μM. 40-60 mCi/mmol) was added, and the mixture was transferred to 37° for 20 min. The reaction was stopped by adding cold cliloroform/methanol (1:2 v/v). Lipid extraction followed by thin-layer chromatography (Negre-Aminou et al., J Neurochem 67:2599-2608 (1996)) isolated the reaction product (identified by co-migration with AA standard), which was then scraped off the plates and analyzed in a scintillation spectrometer (Beckman). In some experiments, especially those involving ^14C-AA-phosphatidylinositol as substrate, the diacylglycerol-containing band (identified by co-migration of standard) also was scraped and counted in order to measure phospholipase C (PLC) activity.

[3] = test system: cPLA2; test: cPLA2 activity in PC-3M-MM2 cells; type: biochemical, human
Description: PLA2 stimulation. Using ^14C-AA-PE, -PC or -PI as a substrate, thrombin, SemaIV and netrin activation of the enzyme are measured. For these assays, commercially available thrombin or thrombin-receptor-activating peptide (TRAP) (Sigma, St. Louis, Mo.), recombinant SemaIV provided to us by Dr. H. Drabkin, University of Colorado School of Medicine, recombinant SemaIII provided by Dr. Y. Luo, Exelixis Pharmaceuticals, San Francisco Calif., and recombinant netrin from Dr. M. Tessier-Lavigne, (University of California, San Francisco) are used. Time courses and dose-response curves are generated with the appropriate substrate(s). These assays are carried out according to well-established protocols described in Negre-Aminou et al., 1996, supra, incorporated herein by reference, on cells grown to equal density levels (as determined by protein and DNA content). Some enzyme assays are carried out in the presence of reducing agent, which blocks secreted but not cytosolic PLA2 activity, to exclude potential interference by secreted PLA2. To characterize the stimulated cPLA2 further, cultured cells are homogenized in protease inhibitor-containing buffer, in the presence of 1 mM EDTA or 0.3 mM Ca^2+, and then centrifuged in order to generate crude membrane fractions and cytosolic extracts. […] In separate experiments, enzyme activity is measured in the presence of different concentrations of free calcium to determine whether the enzyme activity is calcium-dependent or not

[4] = test system: PC-3M-MM2 cells; test: Boyden chamber assay, PC-3M-MM2 cells; type: cell-based, human
Description: In addition, seven human prostate carcinoma cell lines were used (see Table 2). One or two cell lines of medium to high motility (e.g., PC-3M-MM2 and DU145) are first selected. The PC-3M-MM2 cells disperse rapidly in the dish and, like the MAT-Lu cells, never form colonies. Cells are grown according to standard procedures. Large numbers of aliquots of all cancer cell lines arc collected and frozen in order to avoid the use of higher passage numbers in later experiments. As the experimentation progresses, the motility and morphology of the cells is re-checked to avoid distortion of results by changes in phenotype. For experimental use, cells are kept well below confluence. In order to test for potential effects of the growth matrix, cells are grown for selected experiments not only on serum-conditioned tissue culture plastic but also on laminin, collagen, fibronectin or Matrigel (Life Technologies/GIBCO-BRL, Gaitheresberg, Md.; Becton Dickinson/Collaborative Biomedical Products, Bedford Mass.). […] The motility, of all cells is assessed quantitatively using the (long-term) Boyden chamber assay as described in Boyden, J. Exp. Med. 115:453-466 (1962), incorporated herein by reference. […] The relative number of cells moving within 3-6 hours across the membrane from the upper well is counted in the presence or absence of IGF-1 in the lower chamber.

[5] = test system: growth cone PLC; test: Phospholipase C assay (DG release) in GCPs; type: biochemical, rat; settings: GCPs; thrombin 100 nM; calcium-dependent
Text: All assays were run in triplicate.

[6] = test system: GCPs plated on laminin; test: GCP release (detachment) assay on laminin; design: species or system rat
Description: GCP Release Assay. Petri dishes (35 mm diameter) were coated with 10 μg mouse laminin in PBS by incubation at room temperature for 60 min with shaking. Dishes were subsequently rinsed three times with PBS to remove unbound laminin and then blocked with 5% non-fat dry milk (Carnation) in PBS for 30 min. After three PBS rinses to remove blocking agent, the dishes were ready for the addition of GCPs. […] After incubation for five min at 37° C. this buffered GCP preparation was added to the laminincoated petri dishes. Contact with the substratum was facilitated by centrifuging the dishes for 15 min at 5000 g (Beckman JS5.2 rotor) at room temperature, followed by incubation at 37° C. to allow adhesion site formation. After 10 min, unattached GCPs were removed by rinsing the dishes twice with 1× modified Krebs buffer. Plated GCPs were then challenged with repellent factor (TRAP or thrombin) for 20 min at 37° C. The supernatant containing released GCPs was collected and centrifuged for protein determination of the pellet. GCPs that remained attached after repellent treatment were removed with 5% sodium dodecyl sulfate (SDS) for protein assay. Protein was measured according to Lowry et al. (1951) as modified by Peterson (1983). Results of these experiments were expressed as the percentage of released versus total GCP protein in the assay.

[7] = test system: PLA2; settings: Table 3a, 100 nM
Description: Phospholipase Assays. For PLA2 assays, GCPs suspended in modified Ca^2+-free Krebs buffer (10-30 μg protein/assay) were first incubated for 10 min on ice in the presence or absence of effectors. Subsequently, phospholipid substrate (PC, PE or PI) containing radiolabelled AA (7 μM; 50,000 cpm/assay) was added and the reaction carried out at 37° C. for 10 minutes. Typically, assay mixtures contained 10 μM CaCl2; specific modifications are described in the figure legends. For phospholipase C (PLC) assays, conditions were the same when run in parallel with PLA2 assays. When PLC assays were run independently, Ca^2+ was increased to 1 mM. Reactions were terminated by the addition of 3.75 volumes of cold chloroform/methanol (1:2). PLA2 assays also were performed on neurons dissociated from fetal rat cerebral cortex. The assay conditions were the same as those just described for GCPs.
Products recovered in chloroform were loaded onto silica gel 60 TLC plates and developed as described earlier (Nègre-Aminou and Pfenninger, 1993) in hexane/ether/acetic acid (40:60:1). AA and DG were identified on TLC by co-migration with authentic standards. The appropriate bands were excised into scintillation fluid and counted on a Beckman LS 1801 scintillation sprectrometer. All assays were run in triplicate.

thrombin: potent growth cone repellent; commercially available thrombin (Sigma); rat thrombin in Boyden assays
effect on cell migration across the membrane ([1]; 200 nM in lower well, 4 hrs, serum-free medium): almost completely suppresses cell migration across the membrane
Mat-Lu cells crossing filter in % of control +/− SEM ([1]; Control column (no IGF-1)): 30.9 +/− 5.7 % of control
Mat-Lu cells crossing filter in % of control +/− SEM ([1]; IGF-1 (0.75 nM)): 38 +/− 9.2 % of control
decrease in control and IGF-1-induced migration across the membrane ([1]; at 200 nM): 70-80%
increase of PLA2 activity (AA release), PE substrate [2]: 40-50 fold
stimulation of AA release from PC [3]: about 4 fold
stimulation of AA release from PE [3]: about 4 fold
stimulation of PI hydrolysis [3]: not further stimulated by thrombin
effect on cell motility [4]: potent inhibitor of cell motility
effect on DG release from PI [5]: inhibits DG release, rather than stimulating it
effect on GCP detachment from laminin ([6]; 20 min at 37° C., cytochalasin D 1 μM): detached from the substratum in a dose-dependent maaner
growth cones detached from laminin ([6]; same thrombin concentrations as cPLA2 assays, in presence of calcium, controls 17%): about 46%
net activity (pmol/min/mg protein), intact neurons ([7]; substrate PE): 26.8 ± 1.9 pmol/min/mg protein
net activity (pmol/min/mg protein), intact neurons ([7]; substrate PI): 42.5 ± 16 pmol/min/mg protein
